No end group written: not given here.
Experiments:
[1] = tested on: HT-29 (human colon adenocarcinoma); assay: Apoptosis assay, HT-29 cells; conditions: for apoptotic activity / morphology (in words): 5 μM, 4 hours
Method: Prostate cancer cell line LNCAP was routinely used for the isolation of Apogen P-1 and Apogen P-2, whereas leukemia cell line HL-60 was used for the isolation of Apogen L. The methods of assays were as follows: LNCAP or HL-60 (1,000 cells) was seeded in 10 microliters RPMI containing 15% or 20% Fetal bovine serum, penicillin and streptomycin at 37 degrees, 5% CO2 in Microtray plates (25 μl wells, Robbins Scientific Corp.). The tested sample (10 μl) was added 3-4 hours after cells were seeded. After incubation of the tested sample with cells for 15 hours, two microliters of Hoechst dye (0.03 ng/ml in PBS) was added. Two hours later, cells that were stained with Hoechst dye were examined under fluorescence microscope. […] The percentage of apoptotic cells was calculated by the following equation:
The DNA condensation, DNA fragmentation and peripheral crescents of the nuclei are characteristics of a cell under apoptosis.

[2] = tested on: LNCaP (prostate cancer) cells; assay: Cell death (apoptosis) assay, LNCaP cells; type: cell-based, human; conditions: for apoptotic activity / membrane blebbing (in words): chemically synthesized peptide, three (3) hours of incubation
Method: […] The free Zinc Acetate and Barium Acetate were removed by repetitive concentration. Fetuin was tested in LNCaP and HL-60 cells. […] Fetuin (in 10 μl PBS) at concentration of 100 ng/ml was added 3-4 hours after the cells were seeded.

[3] = tested on: CCD-18 Co (human normal colon fibroblast); assay: Apoptosis assay, CCD-18 Co cells; type: cell-based; conditions: various concentrations of SEQ ID NO: 1
Excerpt: Zinc charged alpha 1-acid glycoprotein has no effect on CCD 18Co cells (human normal colon fibroblast).

cancer cell lines = assay: Apoptosis assay, cancer cells (cell line not given); type: cell-based
[4] = various concentrations of SEQ ID NO: 1

For “HTFSGVASVE [SEQ ID NO: 1, H-T-F-S-G-V-A-S-V-E]”, the induced apoptosis ([1]; 0.4 μM, four (4) hours) was 52%, the “cells induced to apoptosis (in words)” value ([1]; 0.4 μM, six (6) hours) was “almost all” and the “induction of apoptosis (in words)” value [1, 4] was “induced apoptosis”. For the same molecule, the “apoptotic activity / membrane blebbing (in words)” value [2] was “caused membrane “blebbing””, the “potency relative to fetuin prepared from other methods” value ([2]; estimate) was “several thousand times” and the “potency relative to Supercharged Zinc Fetuin” value ([2]; estimate, see FIG. 13) was “eight to ten times”. The “induction of apoptosis (in words)” value [2, 4] was “induced apoptosis” and the “induction of apoptosis (in words)” value [3] was “without affecting”.

In the case of “S-A-S-G-E-A-F-H (SASGEAFH; Polypeptide fragment from treatment of fetuin from bovine sera as described in the specification.) [SEQ ID NO: 2, chemically synthesized bovine fetuin fragment, amino acid no; 310-317]”, the “apoptotic activity / membrane blebbing (in words)” value [2] is reported as “did not show any apoptotic activity”.

“alpha 1-acid glycoprotein (without zinc): alpha 1-acid glycoprotein pre-incubated with EDTA without recharging with zinc [reference compound]” was tested, and the “apoptotic activity / morphology (in words)” value [1] was “no apoptotic activity was seen” and the “induction of apoptosis in cancer/tumor cell lines (in words)” value (cancer cell lines) was “failed to induce apoptosis”.

For “alpha 1-acid glycoprotein purchased from Sigma, after zinc charging: commercial alpha 1-acid glycoprotein after zinc charging”, the “induction of apoptosis in cancer/tumor cell lines (in words)” value (cancer cell lines) was “contained the same activity”.

With “alpha 1-antitrypsin (without zinc): alpha 1-antitrypsin pre-incubated with EDTA without recharging with zinc [reference compound]” the “apoptotic activity / morphology (in words)” value [1] was “no apoptotic activity was seen” and the “induction of apoptosis in cancer/tumor cell lines (in words)” value (cancer cell lines) was “failed to induce apoptosis”.

In the case of “calcium charged alpha 1-acid glycoprotein: alpha 1-acid glycoprotein pre-incubated with EDTA and recharged with calcium [reference compound]”, the “apoptotic activity / morphology (in words)” value [1] is reported as “no apoptotic activity was seen”.

With “calcium charged alpha 1-antitrypsin: alpha 1-antitrypsin pre-incubated with EDTA and recharged with calcium [reference compound]” the “apoptotic activity / morphology (in words)” value [1] was “no apoptotic activity was seen”.

B1: alpha 2-HS glycoprotein (without zinc): alpha 2-HS glycoprotein pre-incubated with EDTA without recharging with zinc (protein, UniProt P02765 19-300; P02765 341-367, looked up)
Alpha-2-HS-glycoprotein chain … 1: APHGPGLIYRQPNCDDPETEEAALVAIDYINQNLPWGYKHTLNQIDEVKVWPQQPSGELFEIEIDTLETTCHVLDPTPVARCSVRQLKEHAVEGDCDFQLLKLDGKFSVVYAKCDSSPDSAEDVRKVCQDCPLLAPLNDTRVVHAAKAALAAFNAQNNGSNFQLEEISRAQLVPLPPSTYVEFTVSGTDCVAKEATEAAKCNLLAEKQYGFCKATLSEKLGGAEVAVTCMVFQTQPVSSQPQPEGANEAVPTPVVDPDAPPSPPLGAPGLPPAGSPPDSHVL
Alpha-2-HS-glycoprotein chain … 2: TVVQPSVGAAAGPVVPPCPGRIRHFKV
modifications: EDTA treated
notes: alpha 2-HS glycoprotein pre-incubated with EDTA without recharging with zinc
With B1 the “apoptotic activity / morphology (in words)” value [1] was “no apoptotic activity was seen” and the “induction of apoptosis in cancer/tumor cell lines (in words)” value (cancer cell lines) was “fails to induce apoptosis”.

B2: calcium charged alpha 2-HS glycoprotein: alpha 2-HS glycoprotein pre-incubated with EDTA and recharged with calcium (protein, UniProt P02765 19-300; P02765 341-367, looked up)
Alpha-2-HS-glycoprotein chain … 1: APHGPGLIYRQPNCDDPETEEAALVAIDYINQNLPWGYKHTLNQIDEVKVWPQQPSGELFEIEIDTLETTCHVLDPTPVARCSVRQLKEHAVEGDCDFQLLKLDGKFSVVYAKCDSSPDSAEDVRKVCQDCPLLAPLNDTRVVHAAKAALAAFNAQNNGSNFQLEEISRAQLVPLPPSTYVEFTVSGTDCVAKEATEAAKCNLLAEKQYGFCKATLSEKLGGAEVAVTCMVFQTQPVSSQPQPEGANEAVPTPVVDPDAPPSPPLGAPGLPPAGSPPDSHVL
Alpha-2-HS-glycoprotein chain … 2: TVVQPSVGAAAGPVVPPCPGRIRHFKV
modifications: calcium charged
In the case of B2, the “apoptotic activity / morphology (in words)” value [1] is reported as “no apoptotic activity was seen”.

B3: Fetuin purchased from Sigma: commercial fetuin prepared by ammonium sulfate precipitation and EDTA treatment (protein, UniProt P12763 19-359, looked up)
Alpha-2-HS-glycoprotein: IPLDPVAGYKEPACDDPDTEQAALAAVDYINKHLPRGYKHTLNQIDSVKVWPRRPTGEVYDIEIDTLETTCHVLDPTPLANCSVRQQTQHAVEGDCDIHVLKQDGQFSVLFTKCDSSPDSAEDVRKLCPDCPLLAPLNDSRVVHAVEVALATFNAESNGSYLQLVEISRAQFVPLPVSVSVEFAVAATDCIAKEVVDPTKCNLLAEKQYGFCKGSVIQKALGGEDVRVTCTLFQTQPVIPQPQPDGAEAEAPSAVPDAAGPTPSAAGPPVASVVVGPSVVAVPLPLHRAHYDLRHTFSGVASVESSSGEAFHVGKTPIVGQPSIPGGPVRLCPGRIRYFKI
With B3 the “concentration at which apoptosis inducing activity was observed” value ([2]; long incubation time (2 days)) was greater than 250 µg/mL, the “concentration at which apoptosis was induced” value ([2]; long incubation time (2 days)) was greater than 5 mM and the “induction of apoptosis in cancer/tumor cell lines (in words)” value (cancer cell lines) was “very low activity”.

B4: E. Coli-expressed fetuin: recombinant bovine fetuin expressed in E. Coli (protein, UniProt P12763 19-359, looked up)
Alpha-2-HS-glycoprotein: IPLDPVAGYKEPACDDPDTEQAALAAVDYINKHLPRGYKHTLNQIDSVKVWPRRPTGEVYDIEIDTLETTCHVLDPTPLANCSVRQQTQHAVEGDCDIHVLKQDGQFSVLFTKCDSSPDSAEDVRKLCPDCPLLAPLNDSRVVHAVEVALATFNAESNGSYLQLVEISRAQFVPLPVSVSVEFAVAATDCIAKEVVDPTKCNLLAEKQYGFCKGSVIQKALGGEDVRVTCTLFQTQPVIPQPQPDGAEAEAPSAVPDAAGPTPSAAGPPVASVVVGPSVVAVPLPLHRAHYDLRHTFSGVASVESSSGEAFHVGKTPIVGQPSIPGGPVRLCPGRIRYFKI
modifications: expressed in E. coli
With B4 the “apoptotic activity relative to supercharged zinc fetuin (Section 4F)” value (cancer cell lines) was “about 5 times”.

B5: natural fetuin: natural fetuin whose carbohydrate moiety was removed by certain enzymes (protein, UniProt P12763 19-359, looked up)
Alpha-2-HS-glycoprotein: IPLDPVAGYKEPACDDPDTEQAALAAVDYINKHLPRGYKHTLNQIDSVKVWPRRPTGEVYDIEIDTLETTCHVLDPTPLANCSVRQQTQHAVEGDCDIHVLKQDGQFSVLFTKCDSSPDSAEDVRKLCPDCPLLAPLNDSRVVHAVEVALATFNAESNGSYLQLVEISRAQFVPLPVSVSVEFAVAATDCIAKEVVDPTKCNLLAEKQYGFCKGSVIQKALGGEDVRVTCTLFQTQPVIPQPQPDGAEAEAPSAVPDAAGPTPSAAGPPVASVVVGPSVVAVPLPLHRAHYDLRHTFSGVASVESSSGEAFHVGKTPIVGQPSIPGGPVRLCPGRIRYFKI
modifications: deglycosylated
notes: natural fetuin whose carbohydrate moiety was removed by certain enzymes
With B5 the “boost of apoptotic inducing activity when carbohydrate moiety removed by certain enzymes” value (cancer cell lines) was 2-3 fold.

B6: Fetuin-Ca: fetuin bound with calcium (protein, UniProt P12763 19-359, looked up)
Alpha-2-HS-glycoprotein: IPLDPVAGYKEPACDDPDTEQAALAAVDYINKHLPRGYKHTLNQIDSVKVWPRRPTGEVYDIEIDTLETTCHVLDPTPLANCSVRQQTQHAVEGDCDIHVLKQDGQFSVLFTKCDSSPDSAEDVRKLCPDCPLLAPLNDSRVVHAVEVALATFNAESNGSYLQLVEISRAQFVPLPVSVSVEFAVAATDCIAKEVVDPTKCNLLAEKQYGFCKGSVIQKALGGEDVRVTCTLFQTQPVIPQPQPDGAEAEAPSAVPDAAGPTPSAAGPPVASVVVGPSVVAVPLPLHRAHYDLRHTFSGVASVESSSGEAFHVGKTPIVGQPSIPGGPVRLCPGRIRYFKI
modifications: calcium bound
B6 was tested, and the “induction of apoptosis in cancer/tumor cell lines (in words)” value (cancer cell lines) was “inactive in inducing apoptosis”.

B7: supercharged zinc fetuin: Section 4A fetuin stripped of ions with EDTA and reloaded with 0.5 M Zinc Acetate (protein, UniProt P12763 19-359, looked up)
Alpha-2-HS-glycoprotein: IPLDPVAGYKEPACDDPDTEQAALAAVDYINKHLPRGYKHTLNQIDSVKVWPRRPTGEVYDIEIDTLETTCHVLDPTPLANCSVRQQTQHAVEGDCDIHVLKQDGQFSVLFTKCDSSPDSAEDVRKLCPDCPLLAPLNDSRVVHAVEVALATFNAESNGSYLQLVEISRAQFVPLPVSVSVEFAVAATDCIAKEVVDPTKCNLLAEKQYGFCKGSVIQKALGGEDVRVTCTLFQTQPVIPQPQPDGAEAEAPSAVPDAAGPTPSAAGPPVASVVVGPSVVAVPLPLHRAHYDLRHTFSGVASVESSSGEAFHVGKTPIVGQPSIPGGPVRLCPGRIRYFKI
modifications: zinc charged
notes: Section 4A fetuin stripped of ions with EDTA and reloaded with 0.5 M Zinc Acetate
B7 was tested, and the “enhancement of ability to induce apoptosis versus original fetuin bound with zinc (Section 4A)” value ([2]; from LD50 on LNCaP cells incubated for 6 hours) was “three to four times”.

Reference: patent publication US8247380B2, “Alpha 1-acid glycoprotein, alpha 2-HS glycoprotein, alpha 1-antitrypsin, and fragments thereof induce apoptosis in cancer cell lines” (Ambryx Biotechnology, D.C., priority 1997, dated 2012)
